Several values for one entry are separate records, joined by “and”; a condition that tells them apart may be missing. Identical values can stand only once.
How the values were obtained:
PAI-1 = PAI-1 ELISA on culture supernatants; type: cell-based, human; conditions: 10 ng/ml, after 24 hours, maintained over 72 hours
Description: DuoSet ELISA kits (R&D Systems) were used to quantify uPAR, PAI-1, and MMP-3. For uPAR and PAI-1 measurement, MDA cells were seeded in triplicate in 96-well plate at 5.0×10^4 cell/mL density with complete L-15 media and treated with 10 ng/mL of either cmvIL-10 or hIL-10 for the indicated times and supernatants were collected daily. The ELISA was carried out on supernatants according to manufacturer's instructions using and following the addition of substrate and stop solution, absorbance of the plate was measured at 450 nm using a Dynex Opsys MR microplate reader. Sample concentrations were interpolated from a standard curve using linear regression analysis. For cell-associated MMP-3, MDA cells were seeded in 96-well plates and treated with cmvIL-10 as above. Cells were treated with cell lysis buffer (150 mM NaCl, 20 mM HEPES, 0.5% Triton-X-100, 1.0 mM NaOV4, 1.0 mM EDTA, 0.1% NaN3) supplemented with 1× protease inhibitors (Calbiochem, EMD Chemicals, San Diego Calif.) and were collected daily for the indicated time points. The lysates were evaluated for MMP-3 according to the manufacturer's instructions (R&D Systems).

MDA-MB-231 cells [1] = experiment: Transcriptional profiling, Human Tumor Metastasis RT2 Profiler PCR Array; type: cell-based; conditions: 100 ng/mL, 5 hrs
Description: RNA was harvested from 10×10^6 MDA-MB-231 cells that were mock treated or treated with 100 ng/mL cmvIL-10 or hIL-10 for 5 hrs using the RNeasy Midi Kit and RNAse-Free DNase set (Qiagen, Valencia, Calif.). From the isolated RNA, cDNA was prepared using the RT^2 First Strand Kit (SA Biosciences, Frederick, Md.) and subsequently loaded into a 96-well breast cancer metastasis profiler PCR array (PAHS-028ZD) with system RT^2 SYBR Green Mastermix (SA Biosciences). The plates were run using the CFX96 Real-Time system cycler (BioRad, Hercules, Calif.) with the following amplification program: 95° C. for 10 min, 95° C. for […] with a slow ramp rate for 1.0 c/sec and 60° C. for 1 min. The data from three biological replicates for each treatment was analyzed by the ΔΔCT method according to manufacturer's instructions using the RT^2 profiler PCR array data analysis program located on the SABiosciences web portal and is reported as fold change relative to control.

MDA-MB-231 cells [2] = experiment: Standard cell counts (hemacytometer); type: cell-based, human; conditions: 100 ng/ml, 6-well dishes
Description: Cells were seeded into 96-well dishes at a density of 1×10^4 cell per well in complete medium with varying doses of cmvIL-10, and then cell viability measured at the indicated time points using the Cell Titer Glo Assay kit according to manufacturer's instructions (Promega). DNA synthesis was measured in cells prepared in the same way using the BrdU Cell Proliferation ELISA Kit (Roche, Basel, Switzerland). For experiments using inhibitors, cells were cultivated in 96-well dishes as above with a final concentration of 10 μM inhibitor and BrdU incorporation evaluated after 72 hrs. For cell counts, cells were seeded into 6-well plates at a density of 2×10^5 cells per well, harvested via trypsinization, and counted using a hemacytometer at the indicated time points. The TACS Annexin V-FITC Detection Kit (Trevigen, Gaithersburg, Md.) was used to stain cells harvested from 70% confluent T75 flasks that had been treated with 100 μM etoposide for 48 hrs in the presence or absence of 100 ng/ml cmvIL-10. Cells were then analyzed via flow cytometry to detect fluorescence. For viability assays, Cell Titer Glo reagent was utilized to quantify cells that had been seeded into 96-well dishes at a density of 1×10^4 cell per well in complete medium with varying doses of etoposide in the presence or absence of 100 ng/ml cmvIL-10 as indicated

hIL-10: purified recombinant human interleukin-10 from R&D Systems
PAI-1 production (PAI-1): significant increase in PAI-1 production
Fold Change vs. Mock, ACTB (MDA-MB-231 cells [1]; ACTB mRNA): 1.3287 fold
Fold Change vs. Mock, APC (MDA-MB-231 cells [1]; APC mRNA): 1.0052 fold
Fold Change vs. Mock, B2M (MDA-MB-231 cells [1]; B2M mRNA): 0.9897 fold
Fold Change vs. Mock, BRMS1 (MDA-MB-231 cells [1]; BRMS1 mRNA): 1.1154 fold
Fold Change vs. Mock, CCL7 (MDA-MB-231 cells [1]; CCL7 mRNA): 0.9314 fold
Fold Change vs. Mock, CD44 (MDA-MB-231 cells [1]; CD44 mRNA): 1.3402 fold
Fold Change vs. Mock, CD82 (MDA-MB-231 cells [1]; CD82 mRNA): 1.1019 fold
Fold Change vs. Mock, CDH1 (MDA-MB-231 cells [1]; CDH1 mRNA): 0.7618 fold
Fold Change vs. Mock, CDH6 (MDA-MB-231 cells [1]; CDH6 mRNA): 0.9314 fold
Fold Change vs. Mock, CDH11 (MDA-MB-231 cells [1]; CDH11 mRNA): 1.0425 fold
Fold Change vs. Mock, CDKN2A (MDA-MB-231 cells [1]; CDKN2A mRNA): 0.9314 fold
Fold Change vs. Mock, CHD4 (MDA-MB-231 cells [1]; CHD4 mRNA): 1.1115 fold
Fold Change vs. Mock, COL4A2 (MDA-MB-231 cells [1]; COL4A2 mRNA): 1.51 fold and 1.5131 fold
Fold Change vs. Mock, CST7 (MDA-MB-231 cells [1]; CST7 mRNA): 0.8858 fold
Fold Change vs. Mock, CTBP1 (MDA-MB-231 cells [1]; CTBP1 mRNA): 0.9576 fold
Fold Change vs. Mock, CTNNA1 (MDA-MB-231 cells [1]; CTNNA1 mRNA): 0.9428 fold
Fold Change vs. Mock, CTSK (MDA-MB-231 cells [1]; CTSK mRNA): 0.8482 fold
Fold Change vs. Mock, CTSL1 (MDA-MB-231 cells [1]; CTSL1 mRNA): 0.8981 fold
Fold Change vs. Mock, CXCL12 (MDA-MB-231 cells [1]; CXCL12 mRNA): 0.9314 fold
Fold Change vs. Mock, CXCR4 (MDA-MB-231 cells [1]; CXCR4 mRNA): 0.8751 fold
Fold Change vs. Mock, DENR (MDA-MB-231 cells [1]; DENR mRNA): 0.9626 fold
Fold Change vs. Mock, EPHB2 (MDA-MB-231 cells [1]; EPHB2 mRNA): 0.9028 fold
Fold Change vs. Mock, ETV4 (MDA-MB-231 cells [1]; ETV4 mRNA): 1.0175 fold
Fold Change vs. Mock, EWSR1 (MDA-MB-231 cells [1]; EWSR1 mRNA): 1.3104 fold
Fold Change vs. Mock, FAT1 (MDA-MB-231 cells [1]; FAT1 mRNA): 1.4414 fold
Fold Change vs. Mock, FGFR4 (MDA-MB-231 cells [1]; FGFR4 mRNA): 0.9693 fold
Fold Change vs. Mock, FLT4 (MDA-MB-231 cells [1]; FLT4 mRNA): 1.0317 fold
Fold Change vs. Mock, FN1 (MDA-MB-231 cells [1]; FN1 mRNA): 1.2100 fold
Fold Change vs. Mock, FXYD5 (MDA-MB-231 cells [1]; FXYD5 mRNA): 1.0479 fold
Fold Change vs. Mock, GAPDH (MDA-MB-231 cells [1]; GAPDH mRNA): 1.2121 fold
Fold Change vs. Mock, GNRH1 (MDA-MB-231 cells [1]; GNRH1 mRNA): 1.1647 fold
Fold Change vs. Mock, HGF (MDA-MB-231 cells [1]; HGF mRNA): 0.9314 fold
Fold Change vs. Mock, HPRT1 (MDA-MB-231 cells [1]; HPRT1 mRNA): 1.3827 fold
Fold Change vs. Mock, HPSE (MDA-MB-231 cells [1]; HPSE mRNA): 0.8645 fold
Fold Change vs. Mock, HRAS (MDA-MB-231 cells [1]; HRAS mRNA): 1.0625 fold
Fold Change vs. Mock, HTATIP2 (MDA-MB-231 cells [1]; HTATIP2 mRNA): 0.9138 fold
Fold Change vs. Mock, IGF1 (MDA-MB-231 cells [1]; IGF1 mRNA): 0.9794 fold
Fold Change vs. Mock, IL1B (MDA-MB-231 cells [1]; IL1B mRNA): 0.6771 fold
Fold Change vs. Mock, IL18 (MDA-MB-231 cells [1]; IL18 mRNA): 0.7526 fold
Fold Change vs. Mock, ITGA7 (MDA-MB-231 cells [1]; ITGA7 mRNA): 0.8796 fold
Fold Change vs. Mock, ITGB3 (MDA-MB-231 cells [1]; ITGB3 mRNA): 1.0317 fold
Fold Change vs. Mock, KISS1R (MDA-MB-231 cells [1]; KISS1R mRNA): 0.9314 fold
Fold Change vs. Mock, KISS1 (MDA-MB-231 cells [1]; KISS1 mRNA): 1.5856 fold
Fold Change vs. Mock, KRAS (MDA-MB-231 cells [1]; KRAS mRNA): 0.9931 fold
Fold Change vs. Mock, MCAM (MDA-MB-231 cells [1]; MCAM mRNA): 1.0353 fold
Fold Change vs. Mock, MDM2 (MDA-MB-231 cells [1]; MDM2 mRNA): 0.9461 fold
Fold Change vs. Mock, MET (MDA-MB-231 cells [1]; MET mRNA): 1.1173 fold
Fold Change vs. Mock, METAP2 (MDA-MB-231 cells [1]; METAP2 mRNA): 1.0736 fold
Fold Change vs. Mock, MGAT5 (MDA-MB-231 cells [1]; MGAT5 mRNA): 1.3590 fold
Fold Change vs. Mock, MMP2 (MDA-MB-231 cells [1]; MMP2 mRNA): 1.5157 fold
Fold Change vs. Mock, MMP3 (MDA-MB-231 cells [1]; MMP3 mRNA): 0.8080 fold
Fold Change vs. Mock, MMP7 (MDA-MB-231 cells [1]; MMP7 mRNA): 0.8123 fold
Fold Change vs. Mock, MMP9 (MDA-MB-231 cells [1]; MMP9 mRNA): 0.9347 fold
Fold Change vs. Mock, MMP10 (MDA-MB-231 cells [1]; MMP10 mRNA): 0.6866 fold
Fold Change vs. Mock, MMP11 (MDA-MB-231 cells [1]; MMP11 mRNA): 1.0867 fold
Fold Change vs. Mock, MMP13 (MDA-MB-231 cells [1]; MMP13 mRNA): 0.9777 fold
Fold Change vs. Mock, MTA1 (MDA-MB-231 cells [1]; MTA1 mRNA): 0.9395 fold
Fold Change vs. Mock, MTSS1 (MDA-MB-231 cells [1]; MTSS1 mRNA): 1.2397 fold
Fold Change vs. Mock, MYC (MDA-MB-231 cells [1]; MYC mRNA): 0.7423 fold
Fold Change vs. Mock, MYCL1 (MDA-MB-231 cells [1]; MYCL1 mRNA): 1.0644 fold
Fold Change vs. Mock, NF2 (MDA-MB-231 cells [1]; NF2 mRNA): 1.3496 fold
Fold Change vs. Mock, NME1 (MDA-MB-231 cells [1]; NME1 mRNA): 1.1000 fold
Fold Change vs. Mock, NME4 (MDA-MB-231 cells [1]; NME4 mRNA): 0.9965 fold
Fold Change vs. Mock, NR4A3 (MDA-MB-231 cells [1]; NR4A3 mRNA): 0.8151 fold
Fold Change vs. Mock, PLAUR (MDA-MB-231 cells [1]; PLAUR (uPAR) mRNA): 1.87 fold and 1.8628 fold
Fold Change vs. Mock, PNN (MDA-MB-231 cells [1]; PNN mRNA): 1.2901 fold
Fold Change vs. Mock, PTEN (MDA-MB-231 cells [1]; PTEN mRNA): 0.8645 fold
Fold Change vs. Mock, RB1 (MDA-MB-231 cells [1]; RB1 mRNA): 0.9298 fold
Fold Change vs. Mock, RORB (MDA-MB-231 cells [1]; RORB mRNA): 0.8827 fold
Fold Change vs. Mock, RPLP0 (MDA-MB-231 cells [1]; RPLP0 mRNA): 1.0000 fold
Fold Change vs. Mock, RPSA (MDA-MB-231 cells [1]; RPSA mRNA): 1.0886 fold
Fold Change vs. Mock, SERPINE1 (MDA-MB-231 cells [1]; SERPINE1 (PAI-1) mRNA): 3.12 fold and 3.0262 fold
Fold Change vs. Mock, SET (MDA-MB-231 cells [1]; SET mRNA): 0.9234 fold
Fold Change vs. Mock, SMAD2 (MDA-MB-231 cells [1]; SMAD2 mRNA): 0.7859 fold
Fold Change vs. Mock, SMAD4 (MDA-MB-231 cells [1]; SMAD4 mRNA): 0.8279 fold
Fold Change vs. Mock, SRC (MDA-MB-231 cells [1]; SRC mRNA): 0.9760 fold
Fold Change vs. Mock, SSTR2 (MDA-MB-231 cells [1]; SSTR2 mRNA): 0.7120 fold
Fold Change vs. Mock, SYK (MDA-MB-231 cells [1]; SYK mRNA): 0.9314 fold
Fold Change vs. Mock, TCF20 (MDA-MB-231 cells [1]; TCF20 mRNA): 0.9676 fold
Fold Change vs. Mock, TGEB1 (MDA-MB-231 cells [1]; TGEB1 (Transforming growth factor, beta 1) mRNA): 0.9931 fold
Fold Change vs. Mock, TIMP2 (MDA-MB-231 cells [1]; TIMP2 mRNA): 0.8601 fold
Fold Change vs. Mock, TIMP3 (MDA-MB-231 cells [1]; TIMP3 mRNA): 0.7631 fold
Fold Change vs. Mock, TIMP4 (MDA-MB-231 cells [1]; TIMP4 mRNA): 0.9122 fold
Fold Change vs. Mock, TNFSF10 (MDA-MB-231 cells [1]; TNFSF10 mRNA): 0.7955 fold
Fold Change vs. Mock, TP53 (MDA-MB-231 cells [1]; TP53 mRNA): 0.8873 fold
Fold Change vs. Mock, TRPM1 (MDA-MB-231 cells [1]; TRPM1 mRNA): 0.9314 fold
Fold Change vs. Mock, TSHR (MDA-MB-231 cells [1]; TSHR mRNA): 0.9314 fold
Fold Change vs. Mock, VEGFA (MDA-MB-231 cells [1]; VEGFA mRNA): 0.5987 fold
VEGFA fold change expressed as negative fold (down-regulation) (MDA-MB-231 cells [1]; VEGFA mRNA): 1.67 fold
cell numbers (MDA-MB-231 cells [2]): higher cell numbers than control cultures
